According to US20230219969A1 (priority 2020, published 2023):
Read-outs that look alike come from different tables or passages of the source.

Assays:
[1] = target: T1, 5HT2A (Homo sapiens, UniProt P28223); assay: Serotonin 5-HT2A in vitro radioligand binding competition assay ([3H]-DOI); set-up: purchased Epics Therapeutics S.A. (Belgium) FAST-0505B
Method: Serotonin 5-HT2A In Vitro Radioligand Binding Competition Assay. The 5-HT2A radioligand binding competition assay was performed at Epics Therapeutics S.A. (Belgium, FAST-0505B) using conventional methods. Briefly, competition binding is performed in duplicate in the wells of a 96 well plate (Master Block, Greiner, 786201) containing binding buffer (optimized for each receptor), membrane extracts (amount of protein/well optimized for each receptor), radiotracer [^3H]-DOI (final concentration optimized for each receptor) and test compound. Nonspecific binding is determined by co-incubation with 200-fold excess of cold competitor. The samples are incubated in a final volume of 0.1 ml at a temperature and for a duration optimized for each receptor and then filtered over filter plates. Filters are washed six times with 0.5 ml of ice-cold washing buffer (optimized for each receptor) and 50 μl of Microscint 20 (Packard) are added in each well. The plates are incubated 15 min on an orbital shaker and then counted with a TopCount™ for 1 min/well.
(§1) The compounds provided herein were tested in the Serotonin 5-HT2A and 5-HT2C in vitro radioligand binding and cellular IPOne agonism assays. The binding and agonism functional potencies of several compound provided herein compounds (as indicated by their IC50s or EC50s) are shown in Table 11.

[2] = target: T1, 5HT2A; assay: Serotonin 5-HT2A in vitro cellular IPOne agonism assay; type: cell-based; set-up: host or cells: CHO-K1
Method: Serotonin 5-HT2A In Vitro Cellular IPOne Agonism Assay. The 5-HT2A IPOne HTRF assay was performed at Epics Therapeutics S.A. (Belgium, FAST-0505I) using conventional methods. Briefly, CHO-K1 cells expressing human recombinant 5-HT2A receptor grown to mid-log phase in culture media without antibiotics were detached with PBS-EDTA, centrifuged, and resuspended in medium without antibiotics buffer. 20,000 cells are distributed in a 96 well plate and incubated overnight at 37° C. with 5% CO2.
For agonist testing, the medium is removed and 20 μl of assay buffer plus 20 μl of test compound or reference agonist are added in each well. The plate is incubated for 60 min. at 37° C. with 5% CO2.
After addition of the lysis buffer containing IP1-d2 and anti-IP1 cryptate detection reagents, plates are incubated 1-hour at room temperature, and fluorescence ratios are measured according to the manufacturer specification, with the HTRF kit.
as §1

[3] = test system: Rat cortical neurons; assay: Neurite Outgrowth in Primary Neuronal Cultures Assay (Procedure B); type: cell-based; set-up: key: A: Statistically significant mean increase as a percent of DMSO control at 10 μM or less; B: No statistically significant mean increase as a percent of DMSO control at 10 μM or less; settings: 72 h, percent of DMSO control at 10 μM or less
Description: Neurite Outgrowth in Primary Neuronal Cultures Assay (Procedure B). Changes in the pattern of neurite outgrowth have been implicated in psychiatric and neurodegenerative disorders as well as traumatic injuries. The discovery of new compounds that can positively affect neuritogenesis are important for developing new therapeutics for neurological diseases. Measurement of neurite outgrowth of rat cortical neurons using an automated image-based assay was used to determine the neuroplastic effects of the compounds of the present invention. The neurite outgrowth assay was performed at Neurofit SAS (France) as described below.
Pregnant Wistar rats (Janvier; France) were used for the study. They were delivered 6 days before their use. Upon arrival at Neurofit animal facility, they were housed one per cage and maintained in a room with controlled temperature (21-22° C.) and a reversed light-dark cycle (12 h/12 h; lights on: 17:30-05:30; lights off: 05:30-17:30) with food and water available ad libitum.
Female Wistar rats of 17 days gestation were killed by cervical dislocation and the fetuses were removed from the uterus. Their brains were placed in ice-cold medium of Leibovitz (L15, Gibco, Fisher bioblock, France). Cortices were dissected and meninges were carefully removed. The cortical neurons were dissociated by trypsinization for 30 min at 37° C. (trypsin-EDTA, Gibco) in presence of 0.1 mg/ml DNAse I (Roche, France). The reaction was stopped by addition of Dulbecco's Modified Eagle Medium (DMEM; Gibco) with 10% of fetal bovine serum (FBS; Gibco). The suspension was triturated with a 10-ml pipette and using a needle syringe 21G and centrifuged at 350×g for 10 min at room temperature. The pellet of dissociated cells was resuspended in a medium consisting of Neurobasal (Gibco) supplemented with 2% B27 supplement (Gibco), 0.5 mM L-Glutamine (Gibco), an antibiotic-antimicotic mixture. Viable cells were counted in a Neubauer cytometer using the trypan blue exclusion test (Sigma). Cells were seeded at a density of 10000 cells per well in 96-well plate (Costar) precoated with poly-L-lysine. Test compound at different concentrations were added to the cultures. Donepezil (positive control) was tested at 250 nM.
After 72 h (3 days) of plating, cultures were fixed with paraformaldehyde in PBS (4%, Sigma) for 30 min at 4° C. Then, cells were successively permeabilized with 0.1% Triton X100 for 30 min, saturated with PBS containing 3% of BSA and were incubated 1 h with anti-beta III tubulin antibody (Sigma) at 1/10 000 in PBS containing 0.5% of BSA. Cells were washed three times with PBS containing 0.5% of BSA, and they were incubated 1 h with goat anti-mouse antibody coupled with AF488 (Invitrogen A11001) diluted at 1/1000 in PBS containing 0.5% of BSA. Finally, nuclei were staining with DAPI 1 mg/ml at 1/1000 in PBS containing 0.5% of BSA. After rinsing with PBS, the plate was filmed and neurite networks were examined and analyzed using High-Content Screening (CellInsight, Thermo Scientific). The average number of neurites per neuron and the average total length of neurites per neuron were the main parameters analyzed. Analysis of data was performed using analysis of variance (ANOVA). The Fisher's Protected Least Significant Difference test was used for multiple comparisons. A p value<0.05 was considered significant. The software used is StatView 5.0 from SAS Institut.
In some embodiments, a compound of the present invention increases the pattern of neurite outgrowth. In some embodiments, a compound of the present invention increases neurite average length compared to a control. In some embodiments, a compound of the present invention increases neurite branch points compared to a control.

[4] = [3H]-DOI competition, membrane extracts, read-out: 5-HT2A Radioligand Binding Activity
[5] = CHO-K1 cells, IPOne HTRF, read-out: 5-HT2A IPOne Agonism Activity

T1 sequence (P28223 whole entry): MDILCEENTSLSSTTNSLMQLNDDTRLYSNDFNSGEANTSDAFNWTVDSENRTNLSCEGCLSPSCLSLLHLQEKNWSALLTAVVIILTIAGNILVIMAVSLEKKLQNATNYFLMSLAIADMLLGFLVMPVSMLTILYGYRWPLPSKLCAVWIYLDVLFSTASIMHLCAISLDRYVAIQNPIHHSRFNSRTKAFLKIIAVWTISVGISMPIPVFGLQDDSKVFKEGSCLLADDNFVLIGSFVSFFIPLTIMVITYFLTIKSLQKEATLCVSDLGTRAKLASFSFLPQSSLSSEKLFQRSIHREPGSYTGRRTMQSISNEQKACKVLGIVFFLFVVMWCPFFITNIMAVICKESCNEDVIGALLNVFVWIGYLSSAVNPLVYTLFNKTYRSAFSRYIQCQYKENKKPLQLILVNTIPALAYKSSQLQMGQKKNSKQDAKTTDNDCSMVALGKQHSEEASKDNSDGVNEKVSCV

| Compound | IC50 [1, 4] | EC50 [2, 5] | Increase in Neurite Length [3] | Increase in Neurite Number [3] | IC50 [1] | EC50 [2] |
| --- | --- | --- | --- | --- | --- | --- |
| CN[C@H](C)Cn1ccc2nc(OC)ccc21 [Example 29, (R)-1-(5-methoxy-1H-pyrrolo[3,2-b]pyridin-1-yl)-N-methylpropan-2-amine] | > 10 µM | > 10 µM | A | B |  |  |
| COc1ccc2c(c1)CCN(CCN(C)C)C2 [Example 11, 2-(6-methoxy-3,4-dihydroisoguinolin-2(1H)-yl)-N,N-dimethylethan-1-amine] | 0.101 to 1 µM | > 10 µM |  |  |  |  |
| C[C@@H](N)Cn1ccc2cncnc21 [Example 26, (R)-1-(7H-pyrrolo[2,3-d]pyrimidin-7-yl)propan-2-amine] | > 10 µM | 1 to 10 µM |  |  |  |  |
| CN(C)CC(=O)n1ccc2cc(F)ccc21 [Example 43, 2-(dimethylamino)-1-(5-fluoro-1H-indol-1-yl)ethan-1-one] | > 10 µM | > 10 µM |  |  |  |  |
| CN[C@H](C)Cn1ccc2cnccc21 [Example 38, (R)—N-methyl-1-(1H-pyrrolo[3,2-c]pyridin-1-yl)propan-2-amine] | > 10 µM | > 10 µM |  |  |  |  |
| CN[C@H](C)Cn1ccc2cc(OC)ncc21 [Example 32, (R)-1-(5-methoxy-1H-pyrrolo[2,3-c]pyridin-1-yl)-N-methylpropan-2-amine] | > 10 µM | > 10 µM | B | B |  |  |
| CN(C)C(C)(C)Cn1ccc2c(F)c(F)ccc21 [Example 12, 1-(4,5-difluoro-1H-indol-1-yl)-N,N,2-trimethylpropan-2-amine] | > 10 µM | > 10 µM |  |  |  |  |
| COc1ccc2c(ccn2CC(C)(C)N(C)C)c1F [Example 15, 1-(4-fluoro-5-methoxy-1H-indol-1-yl)-N,N,2-trimethylpropan-2-amine] | > 10 µM | > 10 µM |  |  |  |  |
| CC(C)(N)Cn1ccc2c(F)c(F)ccc21 [Example 41, 1-(4,5-difluoro-1H-indol-1-yl)-2-methylpropan-2-amine] | 1 to 10 µM | 1 to 10 µM |  |  |  |  |
| C[C@@H](N)Cn1ccc2cnccc21 [Example 37, (R)-1-(1H-pyrrolo[3,2-c]pyridin-1-yl)propan-2-amine] | > 10 µM | > 10 µM |  |  |  |  |
| C[C@H](C(=O)n1ccc2ccccc21)N(C)C [Example 46, (R)-2-(dimethylamino)-1-(1H-indol-1-yl)propan-1-one] |  |  |  |  | > 10 µM | > 10 µM |
| COc1ccc2c(c1)CN(CCN(C)C)C2 [Example 10, 2-(5-methoxyisoindolin-2-yl)-N,N-dimethylethan-1-amine] | 1 to 10 µM | > 10 µM |  |  |  |  |
| CN(C)C(C)(C)Cn1ccc2c(F)cccc21 [Example 18, 1-(4-fluoro-1H-indol-1-yl)-N,N,2-trimethylpropan-2-amine] | > 10 µM | > 10 µM |  |  |  |  |
| COc1cc(F)c2c(ccn2CC(C)(C)N(C)C)c1 [Example 17, 1-(7-fluoro-5-methoxy-1H-indol-1-yl)-N,N,2-trimethylpropan-2-amine] | > 10 µM | > 10 µM |  |  |  |  |
| CN(C)C(C)(C)Cn1ccc2cccc(F)c21 [Example 20, 1-(7-fluoro-1H-indol-1-yl)-N,N,2-trimethylpropan-2-amine] | > 10 µM | > 10 µM |  |  |  |  |
| COc1cc2ccn(CC(C)(C)N(C)C)c2cn1 [Example 22, 1-(5-methoxy-1H-pyrrolo[2,3-c]pyridin-1-yl)-N,N,2-trimethylpropan-2-amine] | > 10 µM | > 10 µM |  |  |  |  |
| CN(C)CC(=O)n1ccc2ccccc21 [Example 44, 2-(dimethylamino)-1-(1H-indol-1-yl)ethan-1-one] | > 10 µM | > 10 µM |  |  |  |  |
| Cc1cn(CC(C)(C)N(C)C)c2ccc(F)cc12 [Example 13, 1-(5-fluoro-3-methyl-1H-indol-1-yl)-N,N,2-trimethylpropan-2-amine] | > 10 µM | 1 to 10 µM |  |  |  |  |
| CN(C)C(C)(C)Cn1ccc2ccc(F)cc21 [Example 19, 1-(6-fluoro-1H-indol-1-yl)-N,N,2-trimethylpropan-2-amine] | > 10 µM | > 10 µM |  |  |  |  |
| CN[C@H](C)Cn1ccc2cc(OC)cnc21 [Example 35, (R)-1-(5-methoxy-1H-pyrrolo[2,3-b]pyridin-1-yl)-N-methylpropan-2-amine] | > 10 µM | > 10 µM |  |  |  |  |
| COc1cnc2c(ccn2C[C@@H](C)N)c1 [Example 34, (R)-1-(5-methoxy-1H-pyrrolo[2,3-b]pyridin-1-yl)propan-2-amine] | > 10 µM | 1 to 10 µM |  |  |  |  |
| Cc1cn(CC(C)(C)N)c2ccc(F)cc12 [Example 40, 1-(5-fluoro-3-methyl-1H-indol-1-yl)-2-methylpropan-2-amine] | 1 to 10 µM | 1 to 10 µM |  |  |  |  |
| COc1ccc2c(ccn2CC(C)(C)N(C)C)n1 [Example 21, 1-(5-methoxy-1H-pyrrolo[3,2-b]pyridin-1-yl)-N,N,2-trimethylpropan-2-amine] | > 10 µM | > 10 µM |  |  |  |  |
| C[C@H](C(=O)n1ccc2cc(F)ccc21)N(C)C [Example 48, (R)-2-(dimethylamino)-1-(5-fluoro-1H-indol-1-yl)propan-1-one] |  |  |  |  | > 10 µM | > 10 µM |
| COc1ncc2c(ccn2CC(C)(C)N(C)C)n1 [Example 23, 1-(2-methoxy-5H-pyrrolo[3,2-d]pyrimidin-5-yl)-N,N,2-trimethylpropan-2-amine] | > 10 µM | > 10 µM |  |  |  |  |
| COc1ccc2c(ccn2CC(C)(C)N)c1 [Example 42, 1-(5-methoxy-1H-indol-1-yl)-2-methylpropan-2-amine] | > 10 µM | 1 to 10 µM |  |  |  |  |
| CN(C)C(C)(C)Cn1ccc2cc(F)ccc21 [Example 14, 1-(5-fluoro-1H-indol-1-yl)-N,N,2-trimethylpropan-2-amine] | > 10 µM | > 10 µM |  |  |  |  |
| COc1cc2ccn(CC(C)(C)N(C)C)c2cc1F [Example 16, 1-(6-fluoro-5-methoxy-1H-indol-1-yl)-N,N,2-trimethylpropan-2-amine] | > 10 µM | > 10 µM |  |  |  |  |
